Tested on: 556581-035-R-J1 tumor spheroid viability, % test/control
Assay: Anticancer human tumor 556581-035-R-J1 patient-derived ovarian carcinoma cell line growth inhibition
Details: spheroids with HUVEC and MSC; for viability, T/C: stronger effect = lower value
Procedure, shortened: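 Single agents and combinations were tested on spheroids built from tumor cells plus HUVEC and hMSC, at half-log dilutions starting at or near clinical Cmax, else 10 microM; final DMSO 0.25% (v/v).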

[1] = curve of first compound, second compound 0.003 µM
[2] = curve of first compound, second compound 0.00949 µM
[3] = curve of first compound, second compound 0.03 µM
[4] = curve of first compound, second compound 0.0949 µM
[5] = curve of first compound, second compound 0.3 µM
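Further: spheroids exposed to compounds for 7 days before viability read.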

CC(C)n1c(=O)n(C)c2cnc3cc(F)c(-c4ccc(OCCCN5CCCCC5)nc4)cc3c21 + CC[C@@]1(O)C(=O)OCc2c1cc1n(c2=O)Cc2cc3c(CN(C)C)c(O)ccc3nc2-1
IC50 [1]: > 10 µM
IC50 [2]: > 10 µM
IC50 [3]: > 10 µM
IC50 [4]: 3.37 µM
IC50 [5]: < 0.0316 µM
viability, T/C (second compound 0.003 µM, first compound 0.0316 µM): 84.2%
viability, T/C (second compound 0.003 µM, first compound 0.1 µM): 85.9%
viability, T/C (second compound 0.003 µM, first compound 0.316 µM): 80.6%
viability, T/C (second compound 0.003 µM, first compound 1 µM): 82.4%
viability, T/C (second compound 0.003 µM, first compound 3.16 µM): 62%
viability, T/C (second compound 0.003 µM, first compound 10 µM): 60.6%
viability, T/C (second compound 0.00949 µM, first compound 0.0316 µM): 81.9%
viability, T/C (second compound 0.00949 µM, first compound 0.1 µM): 76.4%
viability, T/C (second compound 0.00949 µM, first compound 0.316 µM): 77.6%
viability, T/C (second compound 0.00949 µM, first compound 1 µM): 77%
viability, T/C (second compound 0.00949 µM, first compound 3.16 µM): 72.7%
viability, T/C (second compound 0.00949 µM, first compound 10 µM): 58.9%
viability, T/C (second compound 0.03 µM, first compound 0.0316 µM): 75%
viability, T/C (second compound 0.03 µM, first compound 0.1 µM): 73.5%
viability, T/C (second compound 0.03 µM, first compound 0.316 µM): 71%
viability, T/C (second compound 0.03 µM, first compound 1 µM): 72.1%
viability, T/C (second compound 0.03 µM, first compound 3.16 µM): 66.5%
viability, T/C (second compound 0.03 µM, first compound 10 µM): 54.5%
viability, T/C (second compound 0.0949 µM, first compound 0.0316 µM): 49.7%
viability, T/C (second compound 0.0949 µM, first compound 0.1 µM): 51.4%
viability, T/C (second compound 0.0949 µM, first compound 0.316 µM): 51.7%
viability, T/C (second compound 0.0949 µM, first compound 1 µM): 55.3%
viability, T/C (second compound 0.0949 µM, first compound 3.16 µM): 50.3%
viability, T/C (second compound 0.0949 µM, first compound 10 µM): 36.8%
viability, T/C (second compound 0.3 µM, first compound 0.0316 µM): 12.3%
viability, T/C (second compound 0.3 µM, first compound 0.1 µM): 12.5%
viability, T/C (second compound 0.3 µM, first compound 0.316 µM): 13.1%
viability, T/C (second compound 0.3 µM, first compound 1 µM): 13.6%
viability, T/C (second compound 0.3 µM, first compound 3.16 µM): 12.1%
viability, T/C (second compound 0.3 µM, first compound 10 µM): 11.6%

CC[C@@]1(O)C(=O)OCc2c1cc1n(c2=O)Cc2cc3c(CN(C)C)c(O)ccc3nc2-1
viability, T/C (compound 0.003 µM): 101% [middle of 10 runs]
viability, T/C (compound 0.03 µM): 74.6% [middle of 10 runs]
viability, T/C (compound 0.0949 µM): 58.5% [middle of 10 runs]
viability, T/C (compound 0.3 µM): 16.5% [middle of 10 runs]
IC50 (compound alone, run of 10/17/2019): 121 nM [middle of 4 runs]
IC50 (compound alone, run of 10/25/2019): 80.7 nM [middle of 5 runs]

Cc1sc2c(c1C)C(c1ccc(Cl)cc1)=NC(CC(=O)Nc1ccc(O)cc1)c1nnc(C)n1-2 (stereo unspecified) + CC[C@@]1(O)C(=O)OCc2c1cc1n(c2=O)Cc2cc3c(CN(C)C)c(O)ccc3nc2-1
IC50 [1]: > 3 µM
IC50 [2]: > 3 µM
IC50 [3]: > 3 µM
IC50 [4]: 0.281 µM
IC50 [5]: < 0.00949 µM
viability, T/C (second compound 0.003 µM, first compound 0.00949 µM): 103%
viability, T/C (second compound 0.003 µM, first compound 0.03 µM): 85.4%
viability, T/C (second compound 0.003 µM, first compound 0.0949 µM): 83.8%
viability, T/C (second compound 0.003 µM, first compound 0.3 µM): 74.8%
viability, T/C (second compound 0.003 µM, first compound 0.949 µM): 77.5%
viability, T/C (second compound 0.003 µM, first compound 3 µM): 74.2%
viability, T/C (second compound 0.00949 µM, first compound 0.00949 µM): 99.4%
viability, T/C (second compound 0.00949 µM, first compound 0.03 µM): 84.3%
viability, T/C (second compound 0.00949 µM, first compound 0.0949 µM): 74%
viability, T/C (second compound 0.00949 µM, first compound 0.3 µM): 68.8%
viability, T/C (second compound 0.00949 µM, first compound 0.949 µM): 71.4%
viability, T/C (second compound 0.00949 µM, first compound 3 µM): 64.2%
viability, T/C (second compound 0.03 µM, first compound 0.00949 µM): 74.3%
viability, T/C (second compound 0.03 µM, first compound 0.03 µM): 76.5%
viability, T/C (second compound 0.03 µM, first compound 0.0949 µM): 68.8%
viability, T/C (second compound 0.03 µM, first compound 0.3 µM): 66.7%
viability, T/C (second compound 0.03 µM, first compound 0.949 µM): 65.6%
viability, T/C (second compound 0.03 µM, first compound 3 µM): 54.7%
viability, T/C (second compound 0.0949 µM, first compound 0.00949 µM): 59.3%
viability, T/C (second compound 0.0949 µM, first compound 0.03 µM): 58.4%
viability, T/C (second compound 0.0949 µM, first compound 0.0949 µM): 56.2%
viability, T/C (second compound 0.0949 µM, first compound 0.3 µM): 50.7%
viability, T/C (second compound 0.0949 µM, first compound 0.949 µM): 39.6%
viability, T/C (second compound 0.0949 µM, first compound 3 µM): 41.4%
viability, T/C (second compound 0.3 µM, first compound 0.00949 µM): 16.4%
viability, T/C (second compound 0.3 µM, first compound 0.03 µM): 16.9%
viability, T/C (second compound 0.3 µM, first compound 0.0949 µM): 12.9%
viability, T/C (second compound 0.3 µM, first compound 0.3 µM): 17.1%
viability, T/C (second compound 0.3 µM, first compound 0.949 µM): 18.6%
viability, T/C (second compound 0.3 µM, first compound 3 µM): 11.3%
